The results in this text go back to patent US10221426B2, “Constitutively active PYR/PYL receptor proteins for improving plant stress tolerance” (The Regents of the University of California, priority 2009, dated 2019).

The assay has as its target T1, PYL4 and HAB1 (Arabidopsis thaliana, UniProt O80920).
T1 construct: vector pHB3; made in house
T1 sequence (O80920 1-207): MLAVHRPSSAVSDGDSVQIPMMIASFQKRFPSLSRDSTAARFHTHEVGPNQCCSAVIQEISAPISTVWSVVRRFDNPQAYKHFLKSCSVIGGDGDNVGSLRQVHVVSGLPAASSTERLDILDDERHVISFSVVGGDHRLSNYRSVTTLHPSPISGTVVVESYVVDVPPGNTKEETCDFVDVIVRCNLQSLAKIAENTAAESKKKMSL
T1 sequence (Q9CAJ0 23-511 partner): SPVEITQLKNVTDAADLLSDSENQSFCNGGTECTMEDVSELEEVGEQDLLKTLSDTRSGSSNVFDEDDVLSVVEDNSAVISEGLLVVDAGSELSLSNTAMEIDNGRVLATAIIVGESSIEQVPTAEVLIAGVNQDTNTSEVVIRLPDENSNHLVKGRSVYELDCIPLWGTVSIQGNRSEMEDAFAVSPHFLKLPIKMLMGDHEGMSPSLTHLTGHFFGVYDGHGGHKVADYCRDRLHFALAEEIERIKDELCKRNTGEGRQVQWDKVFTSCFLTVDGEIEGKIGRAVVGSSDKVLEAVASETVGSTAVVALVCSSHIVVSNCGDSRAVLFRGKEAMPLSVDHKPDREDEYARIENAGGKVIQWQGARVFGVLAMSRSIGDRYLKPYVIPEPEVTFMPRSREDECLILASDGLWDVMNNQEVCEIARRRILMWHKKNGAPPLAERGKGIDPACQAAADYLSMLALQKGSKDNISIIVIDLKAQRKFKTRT
Nature of the assay: In vitro pull down assay of refolded PYL4 with HAB1. Type of assay: binding. The method, then: To explore the functional implications of the PYR1-PP2C interaction, we examined if an ABA response could be reconstituted in vitro. Recombinant GST-HAB1, GST-ABI1 and GST-ABI2 were expressed in E. coli and tested for ligand-dependent interactions with 6×His-PYR1 in pull-down assays. Purified 6×His-PYR1 and GST-HAB1 (20 and 100 μg respectively, 8 μM PYR1 final concentration), were combined in 100 μl TBS containing 10 μM (+)-ABA or 1% DMSO for negative control. The reaction was incubated for 90 minutes at RT and 5 μl of PrepEase (USB) His-tagged protein purification resin was added. The resin and reaction mixture was incubated 30 min at RT with gentle shaking at 5 min intervals. The resin was washed five times with TBS containing 10 μM (+)-ABA. After the final wash, the bound protein was eluted in 20 μl SDS-PAGE buffer, boiled for 5 minutes and centrifuged. 5 μl of eluate was analyzed on SDS-PAGE. For pull-downs with ABI1 and ABI2, crude lysates were used in a similar method, except purified PP2C was replaced with cleared E. coli lysates. The amount of lysate added was determined by SDS-page analysis to yield ˜100 μg PP2C, such that the same stoichiometry was used as in assays using purified proteins.
A PYL4 6×His-tagged (SEQ ID NO:141) protein was constructed using a public pUni clone. This was recombined into the His-tagged expression vector pHB3. […]

`CC1=CC(=O)CC(C)(C)[C@@]1(O)/C=C/C(C)=C\C(=O)O` [ABA, Abscisic acid]: the “PYL4 binding to HAB1 in pull down” value is “binds HAB1 in response to ABA”.
